{
  "source": "the supplement of paper PMC10307832",
  "assay_in_all_cases": "relative viability (nuclei count vs DMSO), 5 days (fraction); higher = more cells survive",
  "key": {"[1]": {"compound": "CS(=O)(=O)CCNCc1ccc(-c2ccc3ncnc(Nc4ccc(OCc5cccc(F)c5)c(Cl)c4)c3c2)o1 [Lapatinib] + Cc1nc(NC(=O)N2CCC[C@H]2C(N)=O)sc1-c1ccnc(C(C)(C)C(F)(F)F)c1 [Alpelisib] (partner 2 µM)", "in_short": "(§1)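 Nuclei were stained with Hoechst during a one-step fixation (final 0.05% Triton X-100, 1% formaldehyde, 1 ug/ml Hoechst) carried out 5 days after dosing, then counted on 4× images. The cells, lung cancer lines in 1536-well plates, had been dosed by pin tool the day after seeding with one drug alone or a fixed anchor-drug dose plus five library-drug doses (not always all listed) in √10 steps. Relative viability is the nuclei count in treated wells divided by that in vehicle wells, and each value is the median of duplicate plates.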"}, "[2]": {"compound": "CS(=O)(=O)CCNCc1ccc(-c2ccc3ncnc(Nc4ccc(OCc5cccc(F)c5)c(Cl)c4)c3c2)o1 [Lapatinib] + CC1(C)CCC(c2ccc(Cl)cc2)=C(CN2CCN(c3ccc(C(=O)NS(=O)(=O)c4ccc(N[C@H](CCN5CCOCC5)CSc5ccccc5)c(S(=O)(=O)C(F)(F)F)c4)cc3)CC2)C1 [Navitoclax] (partner 0.5 µM)", "in_short": "as §1"}, "[3]": {"compound": "CC1=NC=CC(=C1)C2=CC=C(C=C2)CC(=O)NC3=CC=C(C=C3)C4=CN=CC=C4 [Wnt-C59] + Cc1nc(Nc2ncc(C(=O)Nc3c(C)cccc3Cl)s2)cc(N2CCN(CCO)CC2)n1 [Dasatinib] (partner 0.075 µM)", "in_short": "as §1"}, "[4]": {"compound": "CS(=O)(=O)CCNCc1ccc(-c2ccc3ncnc(Nc4ccc(OCc5cccc(F)c5)c(Cl)c4)c3c2)o1 [Lapatinib] + CC(=O)Nc1cccc(-n2c(=O)n(C3CC3)c(=O)c3c(Nc4ccc(I)cc4F)n(C)c(=O)c(C)c32)c1 [Trametinib] (partner 0.02 µM)", "in_short": "as §1"}},
  "data": [
    {"cell line": "A-427", "values": [
      {"measurement": "relative viability", "setting": "[1]; first compound 0.06325 µM", "result": 1.04},
      {"measurement": "relative viability", "setting": "[1]; first compound 0.2 µM", "result": 1.1},
      {"measurement": "relative viability", "setting": "[1]; first compound 0.6325 µM", "result": 1.07},
      {"measurement": "relative viability", "setting": "[1]; first compound 2 µM", "result": 1.04},
      {"measurement": "relative viability", "setting": "[2]; first compound 0.06325 µM", "result": 0.977},
      {"measurement": "relative viability", "setting": "[2]; first compound 0.2 µM", "result": 0.885},
      {"measurement": "relative viability", "setting": "[2]; first compound 0.6325 µM", "result": 0.933},
      {"measurement": "relative viability", "setting": "[2]; first compound 2 µM", "result": 0.957},
      {"measurement": "relative viability", "setting": "[3]; first compound 0.001 µM", "result": 0.71},
      {"measurement": "relative viability", "setting": "[3]; first compound 0.01 µM", "result": 0.682},
      {"measurement": "relative viability", "setting": "[3]; first compound 0.03162 µM", "result": 0.768},
      {"measurement": "relative viability", "setting": "[3]; first compound 0.1 µM", "result": 0.798},
      {"measurement": "relative viability", "setting": "[4]; first compound 0.02 µM", "result": 0.724},
      {"measurement": "relative viability", "setting": "[4]; first compound 0.06325 µM", "result": 0.631},
      {"measurement": "relative viability", "setting": "[4]; first compound 0.2 µM", "result": 0.716},
      {"measurement": "relative viability", "setting": "[4]; first compound 0.6325 µM", "result": 0.788},
      {"measurement": "relative viability", "setting": "[4]; first compound 2 µM", "result": 0.691}
    ]}
  ]
}
